Values of other authors, collected in patent US20210008081A1, “ORAL LIQUID FORMULATIONS OF ABIRATERONE” (LEIUTIS PHARMACEUTICALS PVT, LTD, priority 2018, published 2021).

Structure (SMILES): CC(=O)O[C@H]1CC[C@@]2(C)C(=CC[C@@H]3[C@@H]2CC[C@]2(C)C(c4cccnc4)=CC[C@@H]32)C1 [Abiraterone acetate]
- Solubility in organic solvents: sparingly soluble to freely soluble
- Solubility in water: practically insoluble
- Biopharmaceutical classification system class (low solubility low permeability): class IV
- Solubility in aqueous media (over a wide range of pH): practically insoluble
